Measurements as given in paper PMC4879473 (CPT: Pharmacometrics & Systems Pharmacology, 2016).

Assays:
CYP3A/P‐gp = conditions: clinical DDI studies; cited from earlier work
CYP3A4 = assay: Retrograde calculation of naloxegol metabolic intrinsic clearance; set-up: species or system human
[1] = cited from earlier work
CYP3A [2] = conditions: individual CYP enzymes and human liver microsomes in vitro; cited from earlier work
[3] = Physicochemical properties of naloxegol; conditions: Experimental data
[4] = Apparent permeability of naloxegol in Caco-2 cells; assay type: in vitro ADME; conditions: human
[5] = Naloxegol blood/plasma, microsomal and gut binding inputs; assay type: in vitro ADME; conditions: plasma
[6] = cited from earlier work; remark: listed apart in the source
CYP3A [7] = biological target: CYP3A (Homo sapiens, UniProt P08684); conditions: ciprofloxacin at 2 mM, in vitro; cited from earlier work
P‐gp = conditions: reported value, P-gp-mediated efflux; cited from earlier work

CYP3A (Homo sapiens, UniProt P08684), sequence (P08684 2-503): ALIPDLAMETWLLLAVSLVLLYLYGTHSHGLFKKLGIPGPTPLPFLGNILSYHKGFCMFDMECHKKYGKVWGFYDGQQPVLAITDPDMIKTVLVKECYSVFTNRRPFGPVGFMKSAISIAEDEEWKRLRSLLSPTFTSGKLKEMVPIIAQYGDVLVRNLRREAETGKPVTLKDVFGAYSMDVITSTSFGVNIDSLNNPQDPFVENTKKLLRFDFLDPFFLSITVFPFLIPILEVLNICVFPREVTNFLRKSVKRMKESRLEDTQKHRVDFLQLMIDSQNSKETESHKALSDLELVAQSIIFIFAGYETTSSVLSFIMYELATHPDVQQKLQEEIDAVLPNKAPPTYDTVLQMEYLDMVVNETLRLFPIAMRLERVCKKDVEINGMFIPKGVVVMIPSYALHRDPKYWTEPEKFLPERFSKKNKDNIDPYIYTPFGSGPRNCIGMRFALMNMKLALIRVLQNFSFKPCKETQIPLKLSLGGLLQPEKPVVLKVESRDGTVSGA

For `CC(=O)N1CCN(c2ccc(OCC3COC(Cn4ccnc4)(c4ccc(Cl)cc4Cl)O3)cc2)CC1` (centres unmarked) [Ketoconazole, ketoconazole], which “observed increase of naloxegol AUC” value (CYP3A/P‐gp) is on record?
The value was 1,185%.

Which results are given for `C=CCN1CC[C@]23c4c5ccc(O)c4O[C@H]2[C@@H](OCCOCCOCCOCCOCCOCCOCCOC)CC[C@@]3(O)[C@H]1C5` [naloxegol]?
CYP3A4 CLint (CYP3A4; Retrograde calculation): 0.267 μL/min/pmol protein; microsomal CLint (CYP3A4; human): 36.6 µL/min/mg; solubility [1]: highly soluble; CYP enzymes metabolizing naloxegol (CYP3A [2]): metabolized primarily by CYP3A; pKa [3]: 8.45; Papp [4]: 4.55 ×10⁻⁶ cm/s; fraction unbound [5]: 0.958; parent drug excreted in urine ([6]; 27 mg [14C]naloxegol oral solution, healthy male volunteers): < 6 % of the dose; dose linearity of PK ([6]; dose of up to 1,000 mg): linear or near linear; CLR ([6]; renal clearance from the renal impairment study): 4.74 L/h; CLpo ([6]; total clearance after an oral dose, observed in the ketoconazole DDI study): 150 L/h

For `O=C(O)c1cn(C2CC2)c2cc(N3CCNCC3)c(F)cc2c1=O` [Ciprofloxacin, ciprofloxacin], which “inhibition of erythromycin‐mediated CYP3A activity” value (CYP3A [7]) is on record?
The value was 65%.

With `C[C@H]1O[C@@H](O[C@H]2[C@@H](O)C[C@H](O[C@H]3[C@@H](O)C[C@H](O[C@H]4CC[C@@]5(C)[C@H](CC[C@@H]6[C@@H]5C[C@@H](O)[C@]5(C)[C@@H](C7=CC(=O)OC7)CC[C@]65O)C4)O[C@@H]3C)O[C@@H]2C)C[C@H](O)[C@@H]1O` [digoxin] as the compound, how does the “in vitro transporter‐mediated intrinsic clearance” value (P‐gp) read?
The value was 2.5 µL/min.
